Measured values taken from patent US20110130413A1, “SUBSTITUTED QUINAZOLINES” (Shire LLC, priority 2008, published 2011).
Converted amounts (≈) assume the structure as drawn. “And” between values parts separate entries of the source, which are not always exact repeats. Equal entries are not always repeated. Marks after values point to notes of the source that are not given here. Blank lines part the entries; values can stand above or below the compound they belong to.

Legend:
[1] = Comparative bioavailability study in the dog; format: in vivo
From the text: The potential benefit of improved water solubility on the absorption of these open-ring analogues was shown in a comparative bioavailability study in the dog. Using the unsubstituted ethyl-5,6-dichloro-3,4-dihydro-2-(1H)-iminoquinazoline-3-acetate HBr as a model compound, a comparison was made of the systemic availability of anagrelide when given as this compound or as anagrelide itself in equimolar doses ([…]).

[2] = Conversion of ring open prodrug to anagrelide in human plasma (LC/MS-MS); format: in vitro ADME; conditions: human plasma spiked 100 ng/mL, room temperature, first point of measurement (immediately after mixing)
Description: Such prodrugs are likely to be extremely rapidly and completely cyclised in plasma to the closed ring 3-alkylanagrelide analogues. […] Human plasma was spiked with anagrelide prodrug (final concentration 100 ng/mL). Immediately after mixing, and at 15, 30, 45 and 60 minutes afterward samples were analysed for anagrelide prodrug and anagrelide.

PDEIII = PDEIII inhibition; format: biochemical; conditions: more potent than anagrelide itself
Solubility = format: physicochemical
[3] = male dogs, single oral (capsule), anagrelide 6.1 mg/kg or ester prodrug 7.5 mg/kg, individual dogs, listed as Ester prodrug of anagrelide, HBr
[4] = male dogs, single oral (capsule), anagrelide 6.1 mg/kg or ester prodrug 7.5 mg/kg, median
[5] = male dogs, single oral (capsule), anagrelide 6.1 mg/kg or ester prodrug 7.5 mg/kg, individual dogs

SMILES: Br.CCOC(=O)CN1Cc2c(ccc(Cl)c2Cl)NC1=N [ethyl-5,6-dichloro-3,4-dihydro-2-(1H)-iminoquinazoline-3-acetate HBr]
Cmax for anagrelide, range over dogs ([1]; dog, oral, equimolar doses): 170-418 ngmL^−1
t½ of 3-hydroxy anagrelide, calculated as ln2/(mean rate constant) ([1]; male dogs, single oral (capsule), anagrelide 6.1 mg/kg or ester prodrug 7.5 mg/kg): 2.1 ^e hours
AUCinfin of 3-hydroxy anagrelide [1, 3]: 1290 ^c ng · h/mL
AUCinfin of anagrelide [1, 3]: 1440 ^d ng · h/mL
k of 3-hydroxy anagrelide [1, 3]: 0.1235 ^c hours^−1
k of anagrelide [1, 3]: 0.1789 ^d hours^−1
t½ of 3-hydroxy anagrelide [1, 3]: 5.6 ^c hours
t½ of anagrelide [1, 3]: 3.9 ^d hours
Tmax of 3-hydroxy anagrelide, median [1, 4]: 3.5 ^b hours
Tmax of anagrelide, median [1, 4]: 3.5 ^b hours
t½ of anagrelide, calculated as ln2/(mean rate constant) ([1]; male dogs, single oral (capsule), ester prodrug 7.5 mg/kg): 1.8 ^f hours
prodrug remaining in human plasma (conversion to anagrelide) [2]: no prodrug could be found

SMILES: O=C1NC2=Nc3ccc(Cl)c(Cl)c3CN2C1O (stereo not drawn) [3-hydroxyanagrelide]
potency as an inhibitor of PDEIII relative to anagrelide (PDEIII): ~40 fold

Tmax of anagrelide [1, 5]: 2 h
solubility (Solubility; aqueous solution, aqueous buffer, at pH 11.4): ~1000 µg/mL (≈ 3900 µM)
solubility (Solubility; aqueous solution, aqueous buffer, pH range of 4-8): < 10 µg/mL
solubility (Solubility; simulated gastric fluid, in 0.1M HCl): ~170 µg/mL (≈ 664 µM)
SMILES: O=C1CN2Cc3c(ccc(Cl)c3Cl)N=C2N1 [anagrelide, 6,7-dichloro-1,5-dihydroimidazo[2,1-b]-quinazolin-2(3H)-one]
k of anagrelide [1, 5]: 0.4459 ^c hours^−1 and 0.3119 ^c hours^−1 and 0.1953 ^d hours^−1
